Structures can show the parent of a compound that is named as a salt.
Target: T1, AR (Homo sapiens, UniProt P10275)
T1 construct: endogenous in cells; host or cells: VCaP cells
T1 sequence (P10275 1-920): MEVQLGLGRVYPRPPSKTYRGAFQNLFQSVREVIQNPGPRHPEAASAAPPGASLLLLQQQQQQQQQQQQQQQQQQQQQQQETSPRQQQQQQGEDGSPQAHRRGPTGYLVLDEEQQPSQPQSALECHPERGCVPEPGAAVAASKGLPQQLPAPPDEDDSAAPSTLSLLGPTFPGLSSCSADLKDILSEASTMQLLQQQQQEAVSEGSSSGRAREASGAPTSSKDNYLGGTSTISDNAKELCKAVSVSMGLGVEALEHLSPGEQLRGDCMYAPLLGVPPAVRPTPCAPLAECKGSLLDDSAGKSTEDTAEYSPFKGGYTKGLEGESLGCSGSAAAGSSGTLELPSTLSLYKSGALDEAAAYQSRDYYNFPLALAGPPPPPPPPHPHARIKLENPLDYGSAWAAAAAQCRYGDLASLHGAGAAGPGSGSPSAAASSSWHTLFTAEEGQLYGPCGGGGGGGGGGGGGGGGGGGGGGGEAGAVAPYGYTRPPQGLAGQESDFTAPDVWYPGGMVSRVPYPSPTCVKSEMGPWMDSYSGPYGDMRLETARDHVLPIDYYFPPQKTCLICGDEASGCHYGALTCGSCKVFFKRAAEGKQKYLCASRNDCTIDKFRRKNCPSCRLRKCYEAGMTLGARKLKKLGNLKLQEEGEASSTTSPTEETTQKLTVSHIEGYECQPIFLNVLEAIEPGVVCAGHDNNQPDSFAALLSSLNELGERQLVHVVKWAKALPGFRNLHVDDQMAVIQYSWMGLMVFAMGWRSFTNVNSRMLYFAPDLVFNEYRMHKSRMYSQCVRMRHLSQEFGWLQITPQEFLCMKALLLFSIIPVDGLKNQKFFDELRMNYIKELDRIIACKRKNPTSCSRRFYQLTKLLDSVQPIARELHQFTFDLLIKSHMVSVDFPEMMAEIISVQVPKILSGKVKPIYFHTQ
Test: VCAP AR Degradation Assay
Type: cell-based
Conditions: for Y (AR degradation efficiency, % of DMSO control): class symbols *; for DC50: class symbols A-C, read-out: DC50
In short: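 AR protein in lysates quantified by sandwich ELISA after 24 h exposure of VCaP cells at 37 °C to 10 concentrations (1:3 steps, 5 μM top, final). Four-parameter logistic fit of percent-of-DMSO levels gave DC50 (50% degradation), EC50 and minimal AR level Y.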

Structure (SMILES)	Y (AR degradation efficiency, % of DMSO control)	DC50
CC1(C)C(=O)N(c2ccc(C#N)c(C(F)(F)F)c2)C(=S)N1c1ccc(OCCN2CCN(CC(=O)Nc3cc(C#N)cc(NC4CCC(=O)NC4=O)c3)CC2)c(F)c1 (stereo not drawn) [Example 65, 2-(4-(2-(4-(3-(4-cyano-3-(trifluoromethyl)phenyl)-5,5-dimethyl-4-oxo-2-thioxoimidazolidin-1-yl)-2-fluorophenoxy)ethyl)piperazin-1-yl)-N-(3-cyano-5-(2,6-dioxopiperidin-3-ylamino)phenyl)acetamide]	** (25%<Y<=35%)	100 to 500 nM
CC1(C)C(=O)N(c2ccc(C#N)c(C(F)(F)F)c2)C(=S)N1c1ccc(OCCN2CCN(CC(=O)Nc3cccc(NC4CCC(=O)NC4=O)c3)CC2)c(C2CC2)c1 (stereo not drawn) [Example 9, hydrochloride]	* (0<Y<=25%)	< 100 nM
CCc1cc(N2C(=S)N(c3cnc(C#N)c(C(F)(F)F)c3)C(=O)C2(C)C)ccc1OCCN1CCN(CC(=O)Nc2cc(F)cc(NC3CCC(=O)NC3=O)c2)[C@H](C)C1 (stereo partly drawn) [Example 75, 2-((R)-4-(2-(4-(3-(6-cyano-5-(trifluoromethyl)pyridin-3-yl)-5,5-dimethyl-4-oxo-2-thioxoimidazolidin-1-yl)-2-ethylphenoxy)ethyl)-2-methylpiperazin-1-yl)-N-(3-(2,6-dioxopiperidin-3-ylamino)-5-fluorophenyl)acetamide]	* (0<Y<=25%)	< 100 nM
CCc1cc(N2C(=S)N(c3ccc(C#N)c(C(F)(F)F)c3)C(=O)C2(C)C)ccc1OCCN1CCN(CC(=O)Nc2cccc(NC3CCC(=O)NC3=O)c2)[C@H](CC)C1 (stereo partly drawn) [Example 260, 2-((R)-4-(2-(4-(3-(4-cyano-3-(trifluoromethyl)phenyl)-5,5-dimethyl-4-oxo-2-thioxoimidazolidin-1-yl)-2-ethylphenoxy)ethyl)-2-ethylpiperazin-1-yl)-N-(3-(2,6-dioxopiperidin-3-ylamino)phenyl)acetamide]	* (0<Y<=25%)	100 to 500 nM
CCc1cc(N2C(=S)N(c3cnc(C#N)c(C(F)(F)F)c3)C(=O)C2(C)C)ccc1OCCN1CCN([C@@H](C)C(=O)Nc2cccc(NC3CCC(=O)NC3=O)c2)CC1 (stereo partly drawn) [Example 118, (2S)-2-(4-(2-(4-(3-(6-cyano-5-(trifluoromethyl)pyridin-3-yl)-5,5-dimethyl-4-oxo-2-thioxoimidazolidin-1-yl)-2-ethylphenoxy)ethyl)piperazin-1-yl)-N-(3-(2,6-dioxopiperidin-3-ylamino)phenyl)propanamide]	* (0<Y<=25%)	< 100 nM
CC[C@@H]1CN(CCOc2ccc(N3C(=S)N(c4ccc(C#N)c(C(F)(F)F)c4)C(=O)C3(C)C)cc2C2CC2)CCN1CC(=O)Nc1cccc(NC2CCC(=O)NC2=O)c1 (stereo partly drawn) [Example 261, 2-((R)-4-(2-(4-(3-(4-cyano-3-(trifluoromethyl)phenyl)-5,5-dimethyl-4-oxo-2-thioxoimidazolidin-1-yl)-2-cyclopropylphenoxy)ethyl)-2-ethylpiperazin-1-yl)-N-(3-(2,6-dioxopiperidin-3-ylamino)phenyl)acetamide]	** (25%<Y<=35%)	100 to 500 nM
CC1(C)C(=O)N(c2ccc(C#N)c(C(F)(F)F)c2)C(=S)N1c1ccc(OCCN2CCN(CC(=O)Nc3cc(NC4CCC(=O)NC4=O)ccc3F)CC2)c(CC(F)F)c1 (stereo not drawn) [Example 174, 2-(4-(2-(4-(3-(4-cyano-3-(trifluoromethyl)phenyl)-5,5-dimethyl-4-oxo-2-thioxoimidazolidin-1-yl)-2-(2,2-difluoroethyl)phenoxy)ethyl)piperazin-1-yl)-N-(5-(2,6-dioxopiperidin-3-ylamino)-2-fluorophenyl)acetamide]	* (0<Y<=25%)	< 100 nM
CC(C)c1cc(N2C(=S)N(c3ccc(C#N)c(C(F)(F)F)c3)C(=O)C2(C)C)ccc1OCCN1CCN(CC(=O)Nc2cccc(NC3CCC(=O)NC3=O)c2)[C@H](C(F)(F)F)C1 (stereo partly drawn) [Example 257, 2-((S)-4-(2-(4-(3-(4-cyano-3-(trifluoromethyl)phenyl)-5,5-dimethyl-4-oxo-2-thioxoimidazolidin-1-yl)-2-isopropylphenoxy)ethyl)-2-(trifluoromethyl)piperazin-1-yl)-N-(3-(2,6-dioxopiperidin-3-ylamino)phenyl)acetamide]	*** (35%<Y<50%)	500 to 1000 nM
C[C@@H]1CN(CCOc2ccc(N3C(=S)N(c4ccc(C#N)c(Cl)c4)C(=O)C3(C)C)cc2C2CC2)C[C@H](C)N1CC(=O)Nc1cc(NC2CCC(=O)NC2=O)ccc1F (stereo partly drawn) [Example 221, 2-((2S,6R)-4-(2-(4-(3-(3-chloro-4-cyanophenyl)-5,5-dimethyl-4-oxo-2-thioxoimidazolidin-1-yl)-2-cyclopropylphenoxy)ethyl)-2,6-dimethylpiperazin-1-yl)-N-(5-(2,6-dioxopiperidin-3-ylamino)-2-fluorophenyl)acetamide]	** (25%<Y<=35%)	< 100 nM
CCc1cc(N2C(=S)N(c3ccc(C#N)c(C(F)(F)F)c3)C(=O)C2(C)C)ccc1OCCN1CCN([C@H](C)C(=O)Nc2cccc(NC3CCC(=O)NC3=O)c2)CC1 (stereo partly drawn) [Example 199, (2R)-2-(4-(2-(4-(3-(4-cyano-3-(trifluoromethyl)phenyl)-5,5-dimethyl-4-oxo-2-thioxoimidazolidin-1-yl)-2-ethylphenoxy)ethyl)piperazin-1-yl)-N-(3-(2,6-dioxopiperidin-3-ylamino)phenyl)propanamide]	** (25%<Y<=35%)	< 100 nM
CCc1cc(N2C(=S)N(c3cnc(C#N)c(C(F)(F)F)c3)C(=O)C2(C)C)ccc1OCCN1CCN(CC(=O)Nc2cccc(NC3CCC(=O)NC3=O)c2)C(C)(C)C1 (stereo not drawn) [Example 97, 2-(4-(2-(4-(3-(6-cyano-5-(trifluoromethyl)pyridin-3-yl)-5,5-dimethyl-4-oxo-2-thioxoimidazolidin-1-yl)-2-ethylphenoxy)ethyl)-2,2-dimethylpiperazin-1-yl)-N-(3-(2,6-dioxopiperidin-3-ylamino)phenyl)acetamide]	* (0<Y<=25%)	< 100 nM
CCc1cc(N2C(=S)N(c3ccc(C#N)c(C(F)(F)F)c3)C(=O)C2(C)C)ccc1CCCN1CCN(CC(=O)Nc2cc(Cl)cc(NC3CCC(=O)NC3=O)c2)CC1 (stereo not drawn) [Example 89, N-(3-chloro-5-(2,6-dioxopiperidin-3-ylamino)phenyl)-2-(4-(3-(4-(3-(4-cyano-3-(trifluoromethyl)phenyl)-5,5-dimethyl-4-oxo-2-thioxoimidazolidin-1-yl)-2-ethylphenyl)propyl)piperazin-1-yl)acetamide]	* (0<Y<=25%)	< 100 nM
CC(C)c1cc(N2C(=S)N(c3cnc(C#N)c(C(F)(F)F)c3)C(=O)C23CCC3)ccc1OCCN1C[C@@H](C)N(CC(=O)Nc2cc(F)cc(NC3CCC(=O)NC3=O)c2)[C@@H](C)C1 (stereo partly drawn) [Example 211, 2-((2S,6R)-4-(2-(4-(7-(6-cyano-5-(trifluoromethyl)pyridin-3-yl)-8-oxo-6-thioxo-5,7-diazaspiro[3.4]octan-5-yl)-2-isopropylphenoxy)ethyl)-2,6-dimethylpiperazin-1-yl)-N-(3-(2,6-dioxopiperidin-3-ylamino)-5-fluorophenyl)acetamide]	* (0<Y<=25%)	< 100 nM
CC(C)c1cc(N2C(=S)N(c3cnc(C#N)c(C(F)(F)F)c3)C(=O)C2(C)C)ccc1OCCN1C[C@@H](C)N(CC(=O)Nc2cc(Cl)cc(NC3CCC(=O)NC3=O)c2)C[C@H]1C (stereo partly drawn) [Example 185, N-(3-chloro-5-(2,6-dioxopiperidin-3-ylamino)phenyl)-2-((2R,5R)-4-(2-(4-(3-(6-cyano-5-(trifluoromethyl)pyridin-3-yl)-5,5-dimethyl-4-oxo-2-thioxoimidazolidin-1-yl)-2-isopropylphenoxy)ethyl)-2,5-dimethylpiperazin-1-yl)acetamide]	* (0<Y<=25%)	100 to 500 nM
CCc1cc(N2C(=S)N(c3cnc(C#N)c(C(F)(F)F)c3)C(=O)C2(C)C)ccc1OCCN1CCN(CC(=O)Nc2cccc(N[C@@H]3CCC(=O)NC3=O)c2)[C@H](C)C1 [Example 138, 2-((R)-4-(2-(4-(3-(6-cyano-5-(trifluoromethyl)pyridin-3-yl)-5,5-dimethyl-4-oxo-2-thioxoimidazolidin-1-yl)-2-ethylphenoxy)ethyl)-2-methylpiperazin-1-yl)-N-(3-((R)-2,6-dioxopiperidin-3-ylamino)phenyl)acetamide]	* (0<Y<=25%)	< 100 nM

— patent US12404241B2 (Celgene Corporation, priority 2018, dated 2025)
